Key:
[1] = biological target: T1, Gag-Pol polyprotein [613-1167,R896S,E946D,S1117V]/[618-1043,R896S,E946D] (Human immunodeficiency virus 2, UniProt P04584, E946D/R896S/S1117V); experiment: HIV RT Assay; details: pH 7.8; 37 °C
T1 construct: 613-1167; 618-1043

[2] = biological target: T2, Gag-Pol polyprotein [588-1027]/[588-1147] (Human immunodeficiency virus 1, UniProt P04585); experiment: HIV RT Assay; details: pH 7.8; 37 °C
T2 construct: 588-1027; 588-1147

T1 sequence (P04584 613-1167, looked up, stated change not applied): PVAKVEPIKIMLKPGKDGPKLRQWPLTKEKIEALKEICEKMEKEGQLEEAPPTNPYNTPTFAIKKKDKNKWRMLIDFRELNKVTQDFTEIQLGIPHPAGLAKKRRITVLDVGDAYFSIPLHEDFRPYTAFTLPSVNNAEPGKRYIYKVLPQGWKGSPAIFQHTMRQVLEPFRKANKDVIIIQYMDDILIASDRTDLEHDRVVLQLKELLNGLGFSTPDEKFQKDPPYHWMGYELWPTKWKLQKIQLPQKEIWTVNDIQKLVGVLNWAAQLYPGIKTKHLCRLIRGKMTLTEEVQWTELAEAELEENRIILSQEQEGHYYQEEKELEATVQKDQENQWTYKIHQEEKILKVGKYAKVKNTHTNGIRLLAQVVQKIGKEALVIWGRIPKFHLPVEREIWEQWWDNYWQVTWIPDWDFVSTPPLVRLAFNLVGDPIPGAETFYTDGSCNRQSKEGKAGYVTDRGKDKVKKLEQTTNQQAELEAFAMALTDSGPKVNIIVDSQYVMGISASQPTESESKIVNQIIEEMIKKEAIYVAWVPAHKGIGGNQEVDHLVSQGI
T1 sequence (P04584 618-1043, looked up, stated change not applied): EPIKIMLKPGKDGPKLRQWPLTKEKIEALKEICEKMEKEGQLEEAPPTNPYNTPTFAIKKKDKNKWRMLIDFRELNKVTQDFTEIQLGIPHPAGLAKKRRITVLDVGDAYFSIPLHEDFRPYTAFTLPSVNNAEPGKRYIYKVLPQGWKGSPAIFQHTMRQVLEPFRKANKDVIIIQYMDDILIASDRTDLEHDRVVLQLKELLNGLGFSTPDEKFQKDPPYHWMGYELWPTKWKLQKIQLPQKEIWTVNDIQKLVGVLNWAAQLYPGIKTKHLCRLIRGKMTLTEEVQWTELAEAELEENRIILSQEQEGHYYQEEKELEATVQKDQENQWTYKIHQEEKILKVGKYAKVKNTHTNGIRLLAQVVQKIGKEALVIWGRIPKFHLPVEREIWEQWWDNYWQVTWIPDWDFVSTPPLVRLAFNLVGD

## Cc1ccnc2c1NC(=O)c1cccnc1N2C1CC1 [BI-RG-587]
[1]
  IC50: > 20 µM

## CCOC(=O)c1cccn1S(=O)(=O)c1cc(Cl)ccc1NC=O [Ethyl 1-[(5-Chloro-2-formamidophenyl)sulfonyl]-1Hpyrrole-2-carboxylate]
[2]
  IC50: > 20 µM

## CCOC(=O)c1cccn1S(=O)(=O)c1cc(Cl)ccc1NC(=O)CC [Ethyl 1-[(5-Chloro-2-propionamidophenyl)sulfonyl]-1H-pyrrole-2-carboxylate]
[2]
  IC50: > 20 µM

## CCOC(=O)c1cccn1S(=O)(=O)c1cc(Cl)ccc1N [ethyl 1-[(2-amino-5-chlorobenzene)sulfonyl]-1H-pyrrole-2-carboxylate]
[1]
  IC50: > 20 µM

## CCOC(=O)c1cccn1S(=O)(=O)c1cc(Cl)ccc1NC(C)=O [ethyl 1-[(5-chloro-2-acetamidobenzene)sulfonyl]-1H-pyrrole-2-carboxylate]
[2]
  IC50: > 20 µM

## CCOC(=O)CC(=O)Nc1ccc(Cl)cc1S(=O)(=O)n1cccc1C(=O)OCC [ethyl 1-{[5-chloro-2-(ethyl 2-formamidoacetate)benzene]sulfonyl}-1H-pyrrole-2-carboxylate]
[2]
  IC50: > 20 µM

## COC(=O)c1cccn1S(=O)(=O)c1cc(Cl)ccc1N [methyl 1-[(2-amino-5-chlorobenzene)sulfonyl]-1H-pyrrole-2-carboxylate]
[1]
  IC50: > 20 µM

— BindingDB's records for doi:10.1021/jm950568w (Universita Di Roma, 1996)
